The results in this text go back to ChEMBL document CHEMBL3102787, “Linear propargylic alcohol functionality attached to the indazole-7-carboxamide as a JAK1-specific linear probe group” (Bioorg Med Chem, 2014).

In assay [1] the target is T1, Tyrosine-protein kinase JAK3 (Homo sapiens) (UniProt P52333).
T1 sequence (whole entry): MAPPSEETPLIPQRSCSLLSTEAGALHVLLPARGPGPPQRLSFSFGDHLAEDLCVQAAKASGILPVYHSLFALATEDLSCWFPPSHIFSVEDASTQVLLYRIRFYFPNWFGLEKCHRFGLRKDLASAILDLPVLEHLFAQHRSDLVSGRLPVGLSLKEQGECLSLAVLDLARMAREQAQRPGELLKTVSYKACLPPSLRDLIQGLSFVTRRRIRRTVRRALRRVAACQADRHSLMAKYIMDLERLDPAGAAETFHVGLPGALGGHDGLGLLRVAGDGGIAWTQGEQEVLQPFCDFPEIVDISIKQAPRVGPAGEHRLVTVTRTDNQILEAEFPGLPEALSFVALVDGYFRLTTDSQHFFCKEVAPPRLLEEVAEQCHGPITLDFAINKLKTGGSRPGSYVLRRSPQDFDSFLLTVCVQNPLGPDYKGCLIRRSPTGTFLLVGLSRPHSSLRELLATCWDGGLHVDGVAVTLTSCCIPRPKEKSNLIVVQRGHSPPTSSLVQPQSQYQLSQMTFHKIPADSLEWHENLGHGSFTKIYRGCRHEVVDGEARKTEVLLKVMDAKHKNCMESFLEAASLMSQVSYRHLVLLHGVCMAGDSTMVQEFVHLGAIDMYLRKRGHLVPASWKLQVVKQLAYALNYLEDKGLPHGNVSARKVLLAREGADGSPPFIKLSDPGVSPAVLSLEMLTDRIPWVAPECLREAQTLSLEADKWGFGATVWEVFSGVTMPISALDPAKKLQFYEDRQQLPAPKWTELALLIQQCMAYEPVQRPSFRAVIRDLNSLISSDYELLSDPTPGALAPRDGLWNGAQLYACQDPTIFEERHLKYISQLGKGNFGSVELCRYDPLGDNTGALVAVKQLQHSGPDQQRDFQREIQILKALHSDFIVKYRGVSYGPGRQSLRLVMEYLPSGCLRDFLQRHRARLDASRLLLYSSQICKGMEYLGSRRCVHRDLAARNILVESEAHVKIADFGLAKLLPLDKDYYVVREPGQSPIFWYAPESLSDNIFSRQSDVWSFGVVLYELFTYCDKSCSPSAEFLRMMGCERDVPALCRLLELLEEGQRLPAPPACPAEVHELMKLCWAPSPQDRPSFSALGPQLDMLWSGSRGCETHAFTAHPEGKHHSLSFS
The note with it: at 10 µM.
Description: Inhibition of JAK3 (unknown origin) at 10 uM

Assay [2] addresses Tyrosine-protein kinase JAK2 (Homo sapiens) (UniProt O60674). The note with it: at 10 µM.
Description: Inhibition of JAK2 (unknown origin) at 10 uM

Chain of Tyrosine-protein kinase JAK2 (Homo sapiens) (O60674 whole entry): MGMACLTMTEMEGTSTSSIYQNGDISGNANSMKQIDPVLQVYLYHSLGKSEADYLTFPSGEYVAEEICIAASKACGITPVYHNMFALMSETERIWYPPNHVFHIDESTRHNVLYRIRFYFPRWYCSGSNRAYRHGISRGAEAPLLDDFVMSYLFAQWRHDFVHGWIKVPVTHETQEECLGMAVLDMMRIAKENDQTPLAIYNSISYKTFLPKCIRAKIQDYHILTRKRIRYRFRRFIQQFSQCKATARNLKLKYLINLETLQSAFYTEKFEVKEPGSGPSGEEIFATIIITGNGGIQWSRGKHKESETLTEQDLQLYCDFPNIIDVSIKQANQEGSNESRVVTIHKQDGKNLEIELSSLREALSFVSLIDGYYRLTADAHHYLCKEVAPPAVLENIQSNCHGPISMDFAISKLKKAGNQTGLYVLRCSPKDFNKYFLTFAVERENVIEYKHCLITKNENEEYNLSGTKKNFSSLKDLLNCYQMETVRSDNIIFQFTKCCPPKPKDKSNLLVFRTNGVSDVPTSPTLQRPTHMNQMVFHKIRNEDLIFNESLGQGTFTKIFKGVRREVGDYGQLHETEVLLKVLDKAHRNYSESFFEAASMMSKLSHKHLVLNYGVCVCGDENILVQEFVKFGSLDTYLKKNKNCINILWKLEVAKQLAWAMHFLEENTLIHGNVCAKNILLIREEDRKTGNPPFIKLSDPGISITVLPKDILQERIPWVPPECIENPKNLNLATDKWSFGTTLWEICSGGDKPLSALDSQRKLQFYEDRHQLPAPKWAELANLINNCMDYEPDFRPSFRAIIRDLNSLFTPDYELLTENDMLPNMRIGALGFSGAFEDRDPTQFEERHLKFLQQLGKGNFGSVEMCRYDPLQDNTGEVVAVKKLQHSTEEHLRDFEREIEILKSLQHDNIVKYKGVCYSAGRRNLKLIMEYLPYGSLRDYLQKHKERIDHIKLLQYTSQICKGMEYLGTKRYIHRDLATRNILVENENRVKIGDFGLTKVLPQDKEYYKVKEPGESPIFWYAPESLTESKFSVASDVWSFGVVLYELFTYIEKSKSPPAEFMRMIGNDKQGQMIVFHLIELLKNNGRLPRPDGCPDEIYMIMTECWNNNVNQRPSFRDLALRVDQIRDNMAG

On to `NC(=O)c1cc(-c2cccc3[nH]ncc23)cc2cn[nH]c12`, for which the values for the inhibition in assay [1] and in assay [2] were 22.5% and 1.2%, respectively.

Consider `NC(=O)c1cc(-c2cc(N)cc3[nH]ncc23)cc2c(C#CCO)n[nH]c12`, for which the inhibition is 38.1% in assay [1] and -0.4% in assay [2].

As for `NC(=O)c1cc(-c2cccc3[nH]ncc23)cc2c(C#CCO)n[nH]c12`, the inhibition in assay [1] stood at 24.9%; in assay [2] it was 2.2%.

In the case of `NC(=O)c1cc(-c2cc(N)cc3[nH]ncc23)cc2c(C#CCCO)n[nH]c12`, the inhibition in assay [1] worked out at 48.1%; in assay [2] it was 2.5%.

As to `NC(=O)c1cc(-c2cccc3[nH]ncc23)cc2c(C#CCCO)n[nH]c12`, the figures for the inhibition in assay [1] and in assay [2] were 32.3% and 6.7%, respectively.

On to `NC(=O)c1cc(-c2cc(N)cc3[nH]ncc23)cc2cn[nH]c12`, for which the inhibition amounted to 15.7% in assay [1] and 9.1% in assay [2].
